In ChEMBL document CHEMBL2069271, “Design, synthesis, stereochemistry and antioxidant properties of various 7-alkylated 2,4-diaryl-3-azabicyclo[3.3.1]nonan-9-ones” (Bioorg Med Chem Lett, 2012):

Key:
[1] = test system: Radical scavenging activity; assay: Antioxidant activity assessed as inhibition of DPPH radical generation relative to alpha-tocopherol; assay type: functional; set-up: scale not given: the % may be the effect or the level left
[2] = test system: Radical scavenging activity; assay: Antioxidant activity assessed as inhibition of DPPH radical generation; assay type: functional
[3] = Oral bioavailability in rat at 500 mg/kg; assay type: ADME, organism-based; settings: in vivo

SMILES: COc1ccc(OC)c(C2NC(c3cc(OC)ccc3OC)C3CC(C)CC2C3=O)c1 (stereo unspecified)
- Activity [1]: 20%

SMILES: COc1cc(C2NC(c3cc(OC)c(OC)c(OC)c3)C3CC(C)CC2C3=O)cc(OC)c1OC (stereo unspecified)
- Activity [1]: 20%

SMILES: COc1ccc(C2NC(c3ccc(OC)c(OC)c3)C3CC(C)CC2C3=O)cc1OC (stereo unspecified)
- Activity [1]: 20%

SMILES: COc1cc(/C=C/C(=O)CC(=O)/C=C/c2ccc(O)c(OC)c2)ccc1O [CURCUMIN]
- IC50 [2]: 35.1 µM
- bioavailability [3]: 1%

SMILES: Cc1c(C)c2c(c(C)c1O)CC[C@@](C)(CCC[C@H](C)CCC[C@H](C)CCCC(C)C)O2 [ALPHA-TOCOPHEROL]
- IC50 [2]: 59 µM
